Values after ≈ are worked out from the molar mass of the structure shown. Read-outs that look alike come from different tables or passages of the source.
Key:
Assay type in all cases: cell-based
[1] = tested on: Escherichia coli clinical isolate; test: Susceptibility of clinical isolates by broth microdilution (MIC/MBC); settings: for MBC: broth microdilution and plating, read-out: Minimum bactericidal concentration (MBC); for MIC: broth microdilution, 37° C., 18 hours, read-out: Minimum inhibitory concentration (MIC)
Method: (§1) Frozen stocks of the Staphylococcus sp. inocula were thawed at 37° C. for 10 minutes and vortexed before plating on blood agar and incubating at 37° C. for 18 hours. Single colonies were used to inoculate a volume of 10 mL of Mueller-Hinton Broth (MHB) and incubated at 37° C. for 18 hours in a shaking incubator (200 rpm). A volume of 100 μL of the actively growing culture was then used to inoculate a volume of 100 mL of MHB and incubated at 37° C. for 6½ hours. […] A volume of 100 μL of each dilution step was spread on plate count agar (PCA) plates and incubated at 37° C. for 18 hours to confirm viable cell numbers. The dilution to 10^−7 was used in the following steps.
(§2) The susceptibility of clinical isolates of Staphylococcus aureus, Escherichia coli and Pseudomonas aeruginosa to the constructs designated Spm-Ad-DOPE (9a) and NCSeCH2CO—CMG(2)-Ad-DOPE was determined by broth microdilution. Actively growing cultures of each clinical isolate were prepared as described above to obtain cultures with the following turbidities (OD600):
(§3) Serial dilutions of each culture to 10^−6 were prepared and used as inocula. Volumes of 50 μL of each dilution was spread on PCA plates and incubated at 37° C. for 18 hours. A two-fold dilution series for each of the two constructs, spermine (2) and selenous acid (H2SeO3) were prepared in sterile 96-well plates. Volumes of 50 μL of inocula were dispensed into a well containing a volume of 50 μL of the serially diluted construct, spermine (2) or selenous acid (H2SeO3). Following gentle mixing the plates were incubated in the dark at 37° C. for 18 hours (200 rpm). Minimum inhibitory concentrations (MIC) were thereby observed and minimum bactericidal concentrations (MBC) determined by plating aliquots from each well.

[2] = tested on: Pseudomonas aeruginosa clinical isolate; test: as above; settings: for MBC: broth microdilution and plating, read-out: Minimum bactericidal concentration (MBC); for MIC: broth microdilution, 37° C., 18 hours, read-out: Minimum inhibitory concentration (MIC)
Method: as §1, §2, §3

[3] = tested on: Staphylococcus aureus clinical isolate; test: as above; settings: for MBC: broth microdilution and plating, read-out: Minimum bactericidal concentration (MBC); for MIC: broth microdilution, 37° C., 18 hours, read-out: Minimum inhibitory concentration (MIC)
Method: as §1, §2, §3

[4] = tested on: Red blood cells (RBCs; group O); test: Adherence of red blood cells to treated microplate well surfaces
Method: A stock solution of the construct designated Spm-Ad-DOPE (9a) was prepared in methanol at a concentration of 10 mg/mL. The stock solution was diluted to a concentration of 250 μg/mL in methanol and 25 μL volumes of the diluted stock solutions dispensed into each of the round bottomed wells of a multi-well microplate (Corning Inc.). The plates were allowed to dry before washing the wells 6 times with deionized water.
Red blood cells (RBCs; group O, up to 2 weeks old) were washed and re-suspended at a concentration of 1% packed cell volume (pcv) in phosphate-buffered saline (PBS). A 50 μL volume of the suspension of RBCs was dispensed into each of the wells and incubated for 1 hour at room temperature before washing 6 times with PBS. The RBCs were fixed by adding a 50 μL volume of a solution of glutaraldehyde in PBS at a concentration of 2.5% (w/v) and incubating for 10 minutes before washing each well with water and allowing to dry. The RBCs were lysed by adding a 50 μL volume of deionized water and incubating for 10 minutes before discarding the water and allowing to dry.
For scanning electron microscopy (SEM) the bottom of each well was cut from the plate and the treated surface sputter coated with platinum prior to imaging.
A two-fold serial dilution from each of the first wells was then performed. […]

Row | MIC ([1]; Escherichia coli) [µM] | MIC ([2]; Pseudomonas aeruginosa) [µM] | MIC ([3]; Staphylococcus aureus) [µM] | Compound | MBC [1] [µM] | MIC [1] [µM] | MBC [2] [µM] | MIC [2] [µM] | MBC [3] [µM] | MIC [3] [µM] | MBC ([1]; Escherichia coli) [µM] | MBC ([2]; Pseudomonas aeruginosa) [µM] | MBC ([3]; Staphylococcus aureus) [µM] | Attachment of RBCs to treated wells ([4]; spermine alone) | Attachment of RBCs to treated wells ([4]; spermine alone in water)
1 |  |  |  | O=[Se](O)O [H2SeO3, selenous acid] | >1985.01 | 1985.01 (≈ 256 µg/mL) | >1985.01 | >1985.01 | >1985.01 | 1985.01 (≈ 256 µg/mL) |  |  |  |  | 
2 | 118 (≈ 23.9 µg/mL) | 3790 (≈ 766 µg/mL) | 473 (≈ 95.8 µg/mL) | NCCCNCCCCNCCCN [Spermine (2), spermine] |  |  |  |  |  |  | 118 (≈ 23.9 µg/mL) | > 3790 | 947 (≈ 192 µg/mL) | not uniform or reproducible | No cells were observed to adhere to the surface
